# Where two headings read alike, the source gives them in different places.
# Key:
# DAT [1] = target: T1, DAT (Homo sapiens, UniProt Q01959); conditions: QSAR data matrix; unit inferred; compounds not tested in this paper, source not given, presumably ref Mayer et al., 2019; read-out: IC50 DAT; cited from earlier work
# T1 construct: expressed in transfected cells
# DAT [2] = target: T1, DAT; experiment: cell-based
# human NET [3] = target: T2, human NET (Homo sapiens, UniProt P23975); experiment: cell-based; conditions: for pIC50 NET: QSAR data matrix, from IC50 NET; for IC50: mean (95% confidence interval), non-linear regression, read-out: IC50 (µM) NET
# T2 construct: expressed in transfected cells
# T2 sequence (P23975 whole entry): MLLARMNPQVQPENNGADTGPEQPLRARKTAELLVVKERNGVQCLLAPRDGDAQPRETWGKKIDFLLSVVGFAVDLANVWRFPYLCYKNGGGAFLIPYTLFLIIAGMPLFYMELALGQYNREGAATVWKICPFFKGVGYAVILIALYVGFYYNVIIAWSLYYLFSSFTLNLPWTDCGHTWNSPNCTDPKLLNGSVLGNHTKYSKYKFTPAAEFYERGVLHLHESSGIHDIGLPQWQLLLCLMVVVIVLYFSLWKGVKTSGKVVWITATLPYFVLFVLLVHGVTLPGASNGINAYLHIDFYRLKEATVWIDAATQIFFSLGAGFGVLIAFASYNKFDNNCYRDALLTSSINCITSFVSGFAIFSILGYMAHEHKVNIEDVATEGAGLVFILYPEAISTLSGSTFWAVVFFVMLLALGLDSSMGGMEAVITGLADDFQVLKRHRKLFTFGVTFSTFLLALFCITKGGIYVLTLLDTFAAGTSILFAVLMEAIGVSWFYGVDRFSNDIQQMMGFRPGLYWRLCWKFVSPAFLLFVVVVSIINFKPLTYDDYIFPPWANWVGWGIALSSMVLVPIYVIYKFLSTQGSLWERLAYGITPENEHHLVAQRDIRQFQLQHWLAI
# human NET [4] = target: T2, human NET; conditions: QSAR data matrix; unit inferred; compounds not tested in this paper, source not given, presumably ref Mayer et al., 2019; cited from earlier work
# SERT [5] = target: T3, SERT (Homo sapiens, UniProt P31645); experiment: Uptake-inhibition of [3H]5-HT in HEK293 cells stably expressing human SERT; assay type: cell-based; conditions: for pIC50 SERT: from IC50 SERT
# T3 construct: expressed in transfected cells
# T3 sequence (P31645 whole entry): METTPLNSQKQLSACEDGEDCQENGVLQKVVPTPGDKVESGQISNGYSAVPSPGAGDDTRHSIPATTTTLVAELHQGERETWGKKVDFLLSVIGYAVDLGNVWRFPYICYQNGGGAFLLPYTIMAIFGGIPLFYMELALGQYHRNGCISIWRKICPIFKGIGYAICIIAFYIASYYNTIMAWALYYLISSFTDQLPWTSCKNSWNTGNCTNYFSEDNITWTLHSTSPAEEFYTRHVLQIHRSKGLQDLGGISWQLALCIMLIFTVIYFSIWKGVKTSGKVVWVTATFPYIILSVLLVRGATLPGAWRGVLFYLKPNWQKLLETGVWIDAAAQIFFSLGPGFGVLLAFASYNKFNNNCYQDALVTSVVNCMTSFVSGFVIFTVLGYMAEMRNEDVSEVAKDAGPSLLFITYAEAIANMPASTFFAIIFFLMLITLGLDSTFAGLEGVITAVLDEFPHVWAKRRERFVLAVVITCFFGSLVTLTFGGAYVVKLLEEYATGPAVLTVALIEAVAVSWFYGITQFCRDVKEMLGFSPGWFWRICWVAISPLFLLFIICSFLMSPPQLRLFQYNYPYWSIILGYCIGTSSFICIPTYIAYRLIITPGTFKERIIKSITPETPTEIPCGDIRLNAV
# SERT [6] = target: T3, SERT; conditions: QSAR data matrix; unit inferred; compounds not tested in this paper, source not given, presumably ref Mayer et al., 2019; read-out: IC50 SERT; cited from earlier work
# [7] = ref Olesti et al., 2019; cited from earlier work
# [8] = LC-MS/MS detection of mephedrone metabolites in a human urine sample; assay type: in vivo; design: key to Detected in urine samples: detected (+); not detected (−); conditions: for detection in human urine sample: achiral LC-MS/MS, after enzymatic workup; for Detected in urine samples: human urine, mephedrone user, only syn- and anti-configurations could be separated
# Description: The biological specimen, human urine, was provided by the Department of Chemical Analytics, Seibersdorf Laboratories GmbH. The sample was taken from a subject postmortem in a fatal case of drug overdose. […] Given this fact, we assumed that also the metabolites would be detectable in sufficient quantity. To evaluate the presence of any metabolites whatsoever in the urine sample we designed an achiral separation protocol for liquid chromatography and we coupled it with triple quadrupole mass spectrometer. The advantage of LC-MS/MS system is that even if two substances have the same retention time, they can still be differentiated by their fragmentation pattern. More in details, the samples for urine analysis were analyzed using a CTC HTS PAL autosampler (CTC Analytics) and a Thermo Surveyor LC system (Thermo) interfaced to a TSQ Quantum Discovery Max triple quadrupole mass spectrometer (Thermo). A C18 security guard cartridge (4 × 2 mm) (Phenomenex) was used for sample clean-up and the analytical HPLC column was a Kinetex 1.7 μm C18 100Å 150 × 2.1 mm (Phenomenex) and Cortecs T3, 2.7 μm C18 120Å 100 × 2.1 mm (Waters). Column selection was performed by a Maylab Mistraswitch column selector (Maylab Analytical Instruments). The solvents were 0.2% formic acid in water (A) and acetonitrile (B). The temperature of the analytical column was maintained at 40°C. The mass spectrometer was equipped with heated electrospray ionization (ESI) source and was operated in positive ionization mode with a spray voltage set at 4500V. The capillary temperature was adjusted to 320°C. The sheath and auxiliary gas (nitrogen) flow rate was 25 and 10 arbitrary units, respectively. The system was operated in selected […] (srm) mode with argon as the collision gas at a pressure of 1.5 mTorr. For the achiral separation, stem solutions were prepared by weighing the reference substances in volumetric flasks and filling them up with MeOH (99.9%; HPLC grade), creating average concentration of 1 mg/ml. Then dilution solutions were prepared as follows: 10 μL of stem solution was filled up to 5 ml MeOH, creating dilution […]. Samples were prepared from dilution solutions by taking out 25 μL and mixing it together with 25 μL of ISP, 50 μL ISS and filled up to 1 ml with Milli-Q water. The final sample solvent was water/MeOH 9/1. For the enzymatic workup, phosphate buffer (1 ml, 0.8M, pH = 7), β-glucuronidase/arylsulfatase (25 μL) and β-glucuronidase (25 μL) were added to the solutions. The solutions were heated at 50°C during 1 h upon which EtOAc (7 ml) was added. The solution was put into shaker for 10min, following centrifugation for 5 min. The organic phase was separated and evaporated into dryness in stream of pressurized nitrogen. The residue was taken up in 150 μL MQ-water/MeOH 9/1 + 0.4% formic acid, heated at 50°C for 5 min and subjected to LC-MS analysis.
# If on one hand the synthesis of putative metabolites allows the establishment of structure activity relationships, on the other hand, it provides pure material to evaluate their presence in human urine samples and determine their pharmacological relevance. To determine the presence of any metabolites in the urine sample, we have designed an achiral separation protocol and coupled the liquid chromatography with triple quadrupole mass spectrometer (LCMS/MS). With the LCMS/MS system two substances with the same retention time, can still be differentiated by their fragmentation pattern. Since metabolites carrying a primary alcohol functionality can form glucuronide and sulfate conjugates, we performed an enzymatic workup of the urine sample in order to cleave them. Apart from the parental drug, we detected 4-OH-MMC and 4-MC (nor-meph) which we have both already identified in our previous publication ([Mayer et al., 2019]), and the two previously uncharacterized metabolites 4-COOH-MC and dihydro-4-MC (Figure 6). […]
# SERT [9] = target: T3, SERT; experiment: Transporter electrophysiology (whole cell patch clamp), HEK293 cells stably expressing SERT; assay type: cell-based; conditions: compound applied at 30 µM, -60 mV
# Procedure: (§1) Human embryonic kidney 293 cells (HEK293 cells) were cultivated in Dulbecco’s Modified Eagle Medium (DMEM), containing 10% heat-in- activated fetal calf serum (FCS), streptomycin (100 μg x 100 ml−1) and penicillin (100 U × 100 ml−1). Geneticin (50 μg x mL−1) was added to select HEK293 cells stably expressing the human isoforms of DAT, NET and SERT as described earlier ([Mayer et al., 2016a]). Cell lines were maintained in a sub-confluent state in humidified atmosphere (37°C, 5% CO2). For uptake inhibition experiments cells expressing the desired transporter were seeded the days before the experiment (40,000 cells per well) or two days before the experiments (20,000 cells per well) onto poly-D-lysine (PDL) coated 96-well plates 24 h prior to the experiment. In the case of transporter-electrophysiology cells were cultivated in 10 cm dishes and 24 h before the experiments they were detached, and seeded at low density onto PDL-coated 3 cm dishes.
# (§2) Transporter electrophysiology was conducted by the means of whole cell patch clamp in HEK293 cells stably expressing DAT or SERT. Substrate-induced currents were recorded under voltage clamp (−60 mV). Cells were continuously superfused with a physiological external solution that contains 140 mM NaCl, 2.5 mM CaCl2, 2 mM MgCl2, 20 mM glucose and 10 mM HEPES, pH = 7.4. The pipette solution contained 133 mM potassium gluconate, 6 mM NaCl, 1 mM CaCl2, 0.7 mM MgCl2, 10 mM HEPES, 10 mM EGTA, pH = 7.2. Currents elicited by mephedrone 30 μM, were measured at room temperature (20–24°C) using an […] amplifier and pClamp 11.2 software (MDS Analytical Technologies). All the solutions perfused onto the cell were applied using a DAD-12 superfusion system and a 8-tube perfusion manifold (ALA Scientific Instruments), which allowed for rapid solution exchange. Current traces were filtered at 1 kHz and digitized at 10 kHz using a Digidata 1,550 (MDS Analytical Technologies). […] For the analysis, passive holding currents were subtracted, and the traces were filtered using a 100-Hz digital Gaussian low-pass filter.
# DAT [10] = target: T1, DAT; experiment: Transporter electrophysiology (whole cell patch clamp), HEK293 cells stably expressing DAT; assay type: cell-based; conditions: compound applied at 30 µM, -60 mV
# Procedure: as §1, §2
# [11] = minor metabolites in rats; ref Linhart et al., 2016; cited from earlier work
# [12] = QSAR data matrix, from IC50 DAT
# [13] = QSAR data matrix, from IC50 DAT, read-out: pIC50 DAT (converted)
# [14] = mean (95% confidence interval), non-linear regression, read-out: IC50 (µM) DAT
# [15] = mean (95% confidence interval), non-linear regression, read-out: IC50 (µM) SERT
# [16] = IC50 (µM) SERT, mean (95% confidence interval), non-linear regression
# [17] = IC50 SERT, QSAR data matrix, unit inferred
# T1 sequence (Q01959 whole entry): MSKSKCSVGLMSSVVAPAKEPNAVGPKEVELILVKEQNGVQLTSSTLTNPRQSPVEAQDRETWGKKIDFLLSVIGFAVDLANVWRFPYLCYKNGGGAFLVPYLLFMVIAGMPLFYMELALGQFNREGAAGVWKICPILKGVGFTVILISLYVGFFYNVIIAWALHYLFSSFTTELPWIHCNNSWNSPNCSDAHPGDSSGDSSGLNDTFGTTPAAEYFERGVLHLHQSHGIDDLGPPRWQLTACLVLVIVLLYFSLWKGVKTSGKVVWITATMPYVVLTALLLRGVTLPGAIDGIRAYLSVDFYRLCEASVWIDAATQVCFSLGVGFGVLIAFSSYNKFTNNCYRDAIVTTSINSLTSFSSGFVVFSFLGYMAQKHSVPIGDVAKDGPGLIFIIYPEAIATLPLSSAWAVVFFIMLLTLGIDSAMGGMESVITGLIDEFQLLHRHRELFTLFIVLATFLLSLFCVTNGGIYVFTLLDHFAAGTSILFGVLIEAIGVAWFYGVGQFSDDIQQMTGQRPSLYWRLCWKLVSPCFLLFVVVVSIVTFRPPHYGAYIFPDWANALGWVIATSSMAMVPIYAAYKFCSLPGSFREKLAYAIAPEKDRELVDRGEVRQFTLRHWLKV
SMILES,IC50 (DAT [1]) [µM],pIC50 DAT (DAT [2]; [12]),pIC50 NET (human NET [3]),IC50 (human NET [4]) [µM],pIC50 SERT (SERT [5]; QSAR data matrix),IC50 (SERT [6]) [µM],Selectivity ratio DAT/SERT (DAT [2]),IC50 (DAT [2]; [14]) [µM],Selectivity ratio NET/DAT (human NET [3]),IC50 (human NET [3]) [µM],Detected in urine samples [8],SERT-mediated current (SERT [9]),DAT-mediated current (DAT [10]),further results
"CN[C@H](C)[C@H](O)c1ccc(C)cc1 [1R2R-MMC, reference compound]",14.1,4.85,4.41,39.1,3.52,302,,,,,,,,
"CN[C@@H](C)[C@H](O)c1ccc(C)cc1 [1R2S-MMC, reference compound]",21.1,4.68,4.41,39,4.49,32.2,,,,,,,,
"CN[C@H](C)[C@@H](O)c1ccc(C)cc1 [1S2R-MMC, reference compound]",12.7,4.90,4.64,22.7,4.18,65.6,,,,,,,,
"CN[C@@H](C)[C@@H](O)c1ccc(C)cc1 [1S2S-MMC, reference compound]",12.9,4.89,4.33,47.1,3.61,248,,,,,,,,
"Cc1ccc(C(=O)[C@@H](C)N)cc1 [2R-MC, reference compound]",9.44,5.03,5.34,4.54,3.70,200,,,,,,,,
"Cc1ccc(C(=O)[C@H](C)N)cc1 [2S-MC, reference compound]",8.72,5.06,5.42,3.84,4.96,10.9,,,,,,,,
"Cc1ccc(C(=O)C(C)N)cc1 (stereo not drawn) [4-MC, nor-mephedrone, reference compound]",,,,,,,,,,,,,,plasma level as % of the plasma mephedrone [7]: 25%; detection in human urine sample [8]: detected
"CN[C@H](C)[C@H](O)c1ccc(CO)cc1 [Dihydro-(R,R)-4-OH-MMC]",,,,,,,67.72,25.6,0.69,37,−,did not elicit any DAT or SERT-mediated current,did not elicit any DAT or SERT-mediated current,"IC50 (DAT [2]; [13]): 25.7 µM; IC50 (SERT [5]; in Figure 3, read-out: IC50(SERT)): 1700 µM; IC50 (SERT [5]; [15]): 1740 µM"
"Cc1ccc([C@@H](O)[C@H](C)N)cc1 [Dihydro-(R,S)-4-MC]",,,,,,,4.94,13.5,0.42,32.4,+,elicited only SERT-mediated currents,elicited only SERT-mediated currents,IC50 (DAT [2]; [13]): 13.5 µM; IC50 (SERT [5]; [16]): 66.9 µM; IC50 (SERT [5]; [17]): 66.9 µM
"Cc1ccc([C@H](O)[C@H](C)N)cc1 [Dihydro-(S,S)-4-MC]",,,,,,,1.42,22.6,2.37,9.51,+,elicited only SERT-mediated currents,elicited only SERT-mediated currents,IC50 (DAT [2]; [13]): 22.4 µM; IC50 (SERT [5]; [16]): 32.2 µM; IC50 (SERT [5]; [17]): 32.2 µM
C[C@H](N)C(=O)c1ccc(CO)cc1 [S-4-OH-MC],,,,,,,2.08,19.2,3.22,5.97,−,elicited both DAT- and SERT mediated currents,elicited both DAT- and SERT mediated currents,IC50 (SERT [5]; [15]): 40 µM
CC(N)C(O)c1ccc(CO)cc1 (stereo not drawn) [dihydro-4-OH-MC],,,,,,,,,,,,,,relative abundance [11]: 0.1–0.2%; detection in human urine sample [8]: not found

# Reference: publication PMC8063026 (Frontiers in Pharmacology, 2021)
